Experimental data from PMC10138233 (PLOS ONE, 2023).

Legend:
[1] = test system: SH-SY5Y (human neuroblastoma) cell line; assay: MTT cell viability assay; settings: 48 h
Method: (§1) This study utilized SH-SY5Y (human neuroblastoma) cell lines. […] After dissolving the cell line stored in a nitrogen tank for long-term use, the cells were removed from the culture dish with a 0.25 Trypsin/EDTA solution when they reached 70% density in the culture flasks. The cells were incubated in DMEM (Capricorn) supplemented with 10% heat-inactivated fetal bovine serum (FBS) and 0.1 mg/ml of penicillin at 37°C with 5% CO2. The medium was refreshed every 48 hours, and passages were made every 5 days based on cell confluency.
The MTT (3-(4,5-dimethylthiazol-2-yl)-2,5-diphenyltetrazolium bromide) assay is a commonly used colorimetric assay to measure cellular viability. […] The amount of formazan produced can be measured by determining the absorbance of the solution at a specific wavelength, which is proportional to the number of viable cells. This assay is widely used in cell biology and drug discovery research to evaluate the cytotoxic effects of various agents on cell viability.
In this study, the MTT assay was selected as the cell viability test. 12,500 cells were seeded per well in a 96-well plate. The cells were then incubated at 37°C with 5% CO2 for 24 h. After 24 h, the old medium was removed and drugs prepared by serial dilution in 100 μl of DMEM within the determined concentration range were applied to three wells, with one well selected as a control (untreated). The plate was then incubated at 37°C with 5% CO2 for another 48 h. After 48 h, […] of 10% MTT (Roche) solution in DMEM was added to each well, and two empty wells were added with only MTT solution for background measurement. After 4 h, 100 μl of solubilizing buffer was added to each well. The plate was incubated at 37°C with 5% CO2 for 16 h. After 16 h, the cell number in each sample was determined by measuring the absorbance spectrophotometrically at […] using a microplate reader (OMEGA). The data was used to determine the percentage relative to the control and create a dose-cell viability graph.
(§2) All the analysis data from the RTCA device and the data generated from the MARS application using the microplate reader (OMEGA) were calculated in the GraphPad Prism 9.5.1 version using the ordinary one-way ANOVA multiple comparisons Tukey test. The results were graphically represented in Excel. Logarithmic calculations were made from the dose-response graph in Excel to obtain the IC50 values.

[2] = test system: SH-SY5Y (human neuroblastoma) cell line; assay: xCELLigence Real Time Cell Analysis (RTCA) of cell viability/proliferation
Method: as §1
RTCA system is an analytical technique that follows cellular events such as proliferation by measuring the electric impedance passing through microelectrodes integrated beneath 96-well special plates in real-time. A 16-well e-plate compatible with the RTCA device was used, with 8 wells by 2. Firstly, 100 μl of cell culture was added to the plates to obtain the background density. Then, 3x10^4 cells were seeded in 100 μl of culture medium on top of the culture. After 24 h, the determined concentration ranges were applied.
Therefore, in this study, the concentrations of 5-10-15-25-50 μM were applied to find the optimum dose. […] There was only one study on a different cell line for quinine. […] The concentration range of 25-50-60-70-75-80-100 μM was chosen for etoperidone based on cell viability tests conducted with its analogue, trazadone.
For each selected dose, the drug was applied to two different wells. The first two wells were designated as the control group without drug application. The growth curve data was obtained from the graph generated by the device 48 h after drug application. The RTCA was repeated three times for each drug group. The IC50 calculations and the percent cell viability graphs compared to the control group were obtained from the data obtained from the three repeats.
as §2

SMILES | concentration (and below) with cell viability close to the control, no cytotoxicity [1] | cytotoxic concentration in correlation with RTCA findings [1] | concentration that significantly reduced cell viability compared to the control group (p < 0.001) ([2]; 48 h, RTCA) | concentration up to which no cytotoxicity was observed (cell index) ([2]; 48 h, RTCA) | safe optimum concentration that does not harm cell viability ([2]; based on both RTCA and MTT) | concentration that significantly reduced cell viability compared to the control group (p < 0.001) ([2]; 48 h, RTCA, listed as galantamine) | cytotoxicity [1] | cytotoxicity ([2]; 48 h, RTCA, 150-4800 μM) | IC50 ([2]; Homo sapiens, 48 h, read-out: IC50 ± SEM) | harmful effect on cell viability ([2]; based on both RTCA and MTT)
CCc1nn(CCCN2CCN(c3cccc(Cl)c3)CC2)c(=O)n1CC [Etoperidone] | ≤ 70 µM | 100 µM | 100 µM | ≤ 70 µM | 70 µM | – | – | – | – | –
COc1ccc2c3c1O[C@H]1C[C@@H](O)C=C[C@@]31CCN(C)C2 [Galantamine] | ≤ 10 µM | 25 µM | 100 µM | ≤ 10 µM | 10 µM | 25 to 50 µM | – | – | – | –
Nc1nc2[nH]cc(CN[C@H]3C=C[C@H](O)[C@@H]3O)c2c(=O)[nH]1 [Queuine] | ≤ 1.25 µM | 5 µM | 5 µM | ≤ 1.25 µM | 1.25 µM | – | – | – | – | –
Cc1ncc(C[n+]2csc(CCO)c2C)c(N)n1 [Thiamine] | – | – | – | ≤ 4800 µM | – | – | did not show any cytotoxic effect at any concentration | no significant cytotoxicity at any applied concentration | 18.8 mM | no dose of Thiamine applied exhibited harmful effects
